Laboratory results taken from ChEMBL document CHEMBL3507680, “University of Dundee, Gates Library screen for HepG2 cell viability”.

Assay: Human HepG2 cell viability assay in 384 well format
Format: toxicity, cell-based
Parameters: dose 125 nL, time 70.5 hour; cytotoxicity at 70.5 h: concentration not given beside the values
Conditions: HepG2 cells, read-out: Inhibition

Which cytotoxicity at 70.5 h does the source give for `CC(C(=O)N1CCn2cncc2C1)N1CCCC1` (stereo unspecified) here?
Its cytotoxicity at 70.5 h is -0.791%.

For `COC(=O)CN1CCCn2nc(CCC(=O)N3CCCC3)cc2C1`, which cytotoxicity at 70.5 h is on record?
Its cytotoxicity at 70.5 h is 2.63%.

For `CCOC(=O)N1CCN(CC(=O)Nc2nnc(C)s2)CC1`, which cytotoxicity at 70.5 h is on record?
Its cytotoxicity at 70.5 h is -6.46%.

With `COc1ccnc(CN2CCC(O)(c3ccc(C)cn3)CC2)c1OC` as the compound, how does the cytotoxicity at 70.5 h read?
The cytotoxicity at 70.5 h was -5.69%.

Which cytotoxicity at 70.5 h does the source give for `c1coc(-c2nc3c(c(NCc4n[nH]c5c4CCC5)n2)CCNCC3)c1` here?
Its cytotoxicity at 70.5 h is 7.72%.

For `O=S(=O)(NCCNc1ccc(-n2cccn2)nn1)c1ccccc1`, which cytotoxicity at 70.5 h is on record?
The cytotoxicity at 70.5 h was -2.97%.

Which cytotoxicity at 70.5 h does the source give for `COc1ccc(-c2c[nH]c(C3CC(=O)N(CC(C)C)C3)n2)cc1` (stereo unspecified) here?
Its cytotoxicity at 70.5 h is -7.11%.

With `O=C1N(c2ccc(Cl)cc2)Cc2n[nH]c(=O)n21` as the compound, how does the cytotoxicity at 70.5 h read?
The cytotoxicity at 70.5 h was -2.4%.

For `Cc1ccc2c(c1)C(NC(=O)C1CCN(S(C)(=O)=O)CC1)CC(C)(C)O2` (stereo unspecified), which cytotoxicity at 70.5 h is on record?
Its cytotoxicity at 70.5 h is -2.93%.

For `c1cnn(Cc2ccc(CN3CCC4(CCCNC4)C3)cc2)c1` (stereo unspecified), which cytotoxicity at 70.5 h is on record?
Its cytotoxicity at 70.5 h is 21.4%.

For `CC(C)=Cc1c(-c2ccccc2)ncn1CCN(C)S(C)(=O)=O`, which cytotoxicity at 70.5 h is on record?
Its cytotoxicity at 70.5 h is 0.261%.

With `CCN(c1ccc(C(=O)N2CCCCC2)cc1)S(=O)(=O)CC` as the compound, how does the cytotoxicity at 70.5 h read?
Its cytotoxicity at 70.5 h is -9.5%.

For `O=C(c1cncc(N2CC[C@@]3(O)CCNC[C@H]3C2)n1)N1CCCC1`, which cytotoxicity at 70.5 h is on record?
Its cytotoxicity at 70.5 h is -3.92%.

Which cytotoxicity at 70.5 h does the source give for `CCN(CCO)C[C@@H]1CN(C(=O)c2ccc(C)s2)C[C@@H]1CO` here?
The cytotoxicity at 70.5 h was 34.8%.

Which cytotoxicity at 70.5 h does the source give for `Cn1ccc(C2CCCCN2C(=O)c2cccc(-n3cccn3)c2)n1` (stereo unspecified) here?
The cytotoxicity at 70.5 h was 10.7%.

With `CS(=O)(=O)CCC(=O)N1C[C@@H]2CC[C@H](C1)N(Cc1ccccc1)C2=O` as the compound, how does the cytotoxicity at 70.5 h read?
The cytotoxicity at 70.5 h was -8.53%.

Which cytotoxicity at 70.5 h does the source give for `Cc1ccc(CN2CCN(c3ccc(F)cn3)CC2=O)cc1C` here?
The cytotoxicity at 70.5 h was -3.51%.

For `COCCN1C[C@@H](C(=O)O)[C@H](c2ccccc2C)C1`, which cytotoxicity at 70.5 h is on record?
Its cytotoxicity at 70.5 h is 31.8%.

For `Cc1nn(C)c2ncnc(N3CCCC(C)(O)C3)c12` (stereo unspecified), which cytotoxicity at 70.5 h is on record?
The cytotoxicity at 70.5 h was -6.93%.

For `CCN1CCc2[nH]cnc2C12CCN(c1ccc(Cl)c(C(=O)O)n1)CC2`, which cytotoxicity at 70.5 h is on record?
The cytotoxicity at 70.5 h was -2.9%.

Which cytotoxicity at 70.5 h does the source give for `Cc1cc2c(cc1CN1CCCCC1CCn1ccnc1C)OCO2` (stereo unspecified) here?
The cytotoxicity at 70.5 h was -1.13%.

With `CCc1ccccc1NC(=O)c1cccc(N(C)S(C)(=O)=O)c1C` as the compound, how does the cytotoxicity at 70.5 h read?
The cytotoxicity at 70.5 h was -4.65%.

For `Cc1ccccc1C(=O)Nc1ccc(OC2CCN(C)CC2)cc1`, which cytotoxicity at 70.5 h is on record?
Its cytotoxicity at 70.5 h is -4.55%.

With `O=C1COc2cc(C(=O)NS(=O)(=O)c3cccc(Cl)c3)ccc2N1` as the compound, how does the cytotoxicity at 70.5 h read?
The cytotoxicity at 70.5 h was -19.1%.

With `CCc1ncc2c(n1)CN(Cc1nc(-c3ccoc3)no1)CC2` as the compound, how does the cytotoxicity at 70.5 h read?
Its cytotoxicity at 70.5 h is -3.42%.

Which cytotoxicity at 70.5 h does the source give for `Cn1ccnc1CN1CCCN(C(=O)c2cccc(CC#N)c2)CC1` here?
The cytotoxicity at 70.5 h was 11.5%.

Which cytotoxicity at 70.5 h does the source give for `COc1c(CNC2CCCN(c3ncccn3)C2)c(C(C)C)nn1C` (stereo unspecified) here?
The cytotoxicity at 70.5 h was 18.4%.

For `Cn1ccnc1CN1CCCN(C(=O)c2ccc3c(c2)OCO3)CC1`, which cytotoxicity at 70.5 h is on record?
Its cytotoxicity at 70.5 h is -6.18%.

Which cytotoxicity at 70.5 h does the source give for `CC(C(=O)N1CCCN(c2ncccc2C#N)CC1)n1cncn1` (stereo unspecified) here?
The cytotoxicity at 70.5 h was -12.1%.

Which cytotoxicity at 70.5 h does the source give for `CCN(c1ccc(C(=O)N2CCCC2c2cnn(C)c2)cn1)C(C)C` (stereo unspecified) here?
The cytotoxicity at 70.5 h was 16.2%.

With `CC(=O)N1CCCN(C(=O)NCc2ccc(-c3ccn[nH]3)cc2)CC1` as the compound, how does the cytotoxicity at 70.5 h read?
Its cytotoxicity at 70.5 h is -4.56%.

With `Cc1ccc(OCCN(C)Cc2nc3c(cnn3C)c(=O)[nH]2)cc1` as the compound, how does the cytotoxicity at 70.5 h read?
The cytotoxicity at 70.5 h was -8.39%.

Which cytotoxicity at 70.5 h does the source give for `COc1ccc(OCCN(C)Cc2nc3c(cnn3C)c(=O)[nH]2)cc1` here?
Its cytotoxicity at 70.5 h is -3.93%.

For `CS(=O)(=O)NC1CCN(C(=O)NCc2cc[nH]n2)CC1`, which cytotoxicity at 70.5 h is on record?
Its cytotoxicity at 70.5 h is -8.42%.

With `CC(=O)NC1CCCN(C(=O)NCc2cc[nH]n2)C1` (stereo unspecified) as the compound, how does the cytotoxicity at 70.5 h read?
The cytotoxicity at 70.5 h was -1.94%.

For `CNC(=O)C1CCN(C(=O)NCc2ccc(-c3ccn[nH]3)cc2)CC1`, which cytotoxicity at 70.5 h is on record?
The cytotoxicity at 70.5 h was -3.31%.

Which cytotoxicity at 70.5 h does the source give for `CNC(=O)NC(=O)CN1CCN(c2ccc(C(=O)OC)cc2)CC1C` (stereo unspecified) here?
The cytotoxicity at 70.5 h was -7.85%.

With `Cc1ncc2c(n1)CN(CC(=O)Nc1c(C)nn(C)c1C)CC2` as the compound, how does the cytotoxicity at 70.5 h read?
Its cytotoxicity at 70.5 h is -1.17%.

With `Cc1nn(C)c(C)c1CC(=O)N1CCCC(n2ccnc2C)C1` (stereo unspecified) as the compound, how does the cytotoxicity at 70.5 h read?
Its cytotoxicity at 70.5 h is -2.12%.

For `CN(CC(=O)Nc1cccnc1)C1CCCN(c2cccnn2)C1` (stereo unspecified), which cytotoxicity at 70.5 h is on record?
The cytotoxicity at 70.5 h was 31.2%.

With `CCN1CC(C(=O)NCCOc2ccc3c(c2)OCO3)CC1=O` (stereo unspecified) as the compound, how does the cytotoxicity at 70.5 h read?
The cytotoxicity at 70.5 h was -1.5%.

With `CS(=O)(=O)NCC1CCCCN1C(=O)c1cccc(C(F)(F)F)c1` (stereo unspecified) as the compound, how does the cytotoxicity at 70.5 h read?
The cytotoxicity at 70.5 h was -0.142%.

For `Cn1ncc2c(=O)[nH]c(CN3CCCC3Cc3ccc(F)cc3)nc21` (stereo unspecified), which cytotoxicity at 70.5 h is on record?
The cytotoxicity at 70.5 h was 1.17%.

For `NC(=O)NCC1CCCCN1C(=O)c1cc(F)cc(F)c1` (stereo unspecified), which cytotoxicity at 70.5 h is on record?
Its cytotoxicity at 70.5 h is -2.44%.

For `O=C(CCc1ccsc1)N1CCC(Nc2cccnn2)CC1`, which cytotoxicity at 70.5 h is on record?
The cytotoxicity at 70.5 h was -3.07%.

Which cytotoxicity at 70.5 h does the source give for `CCc1nc2n(n1)CC(NCc1cnc(-c3ccccc3)nc1)CC2` (stereo unspecified) here?
The cytotoxicity at 70.5 h was 29.3%.

Which cytotoxicity at 70.5 h does the source give for `Cc1ccc(-c2nc(CNC3CCc4ncnn4C3)no2)cc1` (stereo unspecified) here?
The cytotoxicity at 70.5 h was -1.3%.

Which cytotoxicity at 70.5 h does the source give for `CCc1nc2n(n1)CC(NCc1noc(-c3ccc(C)cc3)n1)CC2` (stereo unspecified) here?
The cytotoxicity at 70.5 h was 0.731%.

With `Cc1nccn1C1CCCN(C(=O)c2ccc3c(c2)CCC3)C1` (stereo unspecified) as the compound, how does the cytotoxicity at 70.5 h read?
Its cytotoxicity at 70.5 h is 0.881%.

With `Cc1nnc(NC(=O)CN(C)C2CCCN(c3cccnn3)C2)s1` (stereo unspecified) as the compound, how does the cytotoxicity at 70.5 h read?
Its cytotoxicity at 70.5 h is 1.26%.

With `COc1ccc(-c2nc(CNC3CCc4nc(C)nn4C3)no2)cc1` (stereo unspecified) as the compound, how does the cytotoxicity at 70.5 h read?
The cytotoxicity at 70.5 h was -3.37%.

For `COCCCNC(=O)CN(C)C1CCCN(c2cccnn2)C1` (stereo unspecified), which cytotoxicity at 70.5 h is on record?
The cytotoxicity at 70.5 h was -6.82%.

With `O=C(CCOc1ccccc1F)N1CCCC1Cn1cccn1` (stereo unspecified) as the compound, how does the cytotoxicity at 70.5 h read?
The cytotoxicity at 70.5 h was 0.51%.

Which cytotoxicity at 70.5 h does the source give for `O=C(CCNc1ncccn1)N1CCC(Nc2cccnn2)CC1` here?
The cytotoxicity at 70.5 h was -2.9%.

Which cytotoxicity at 70.5 h does the source give for `CCCc1n[nH]c(C2CN(C(=O)c3ccc[nH]3)CCO2)n1` (stereo unspecified) here?
The cytotoxicity at 70.5 h was -3.89%.

Which cytotoxicity at 70.5 h does the source give for `COc1cccc(CNC(C)C)c1OCc1ccc(C)cc1` here?
The cytotoxicity at 70.5 h was -3.04%.
